Assay results reported in patent US12173088B2, “Anti-microbial peptides” (priority 2018, dated 2024).
Converted amounts (≈) assume the structure as drawn. Square brackets hold non-standard residues; d marks the D form. Peptide text beside a SMILES is read from it. Orn = NCCC[C@H](N)C(=O)O

Legend:
S. aureus USA300 = assay: microbe, parasite or virus in culture; type: cell-based, Staphylococcus aureus
Text: The bacterial strains used include the Gram-positive strains Staphylococcus aureus USA300 LAC, S. epidermidis 1457, and Bacillus subtilis 168, as well as the Gram-negative isolates Escherichia coli K12 and Acinetobacter baumannii B2367-12. Additional, drug resistance strains include Gram-positive Enterococcus faecium V286-17 (VRE) and S. aureus M838-17 (MRSA) and Gram-negative E. coli E423-17, E. coli E416-17 (ampC), and P. aeruginosa E411-17. Bacteria were cultivated in tryptic soy broth (TSB) (BD Bioscience, MD).
(§1) The antibacterial activity of peptides was evaluated using a standard broth microdilution protocol with minor modifications as described (Mishra, et al. (2012) J. Am. Chem. Soc., 134:12426-12429). In brief, logarithmic phase bacterial cultures (i.e., optical density at 600 nm≈0.5) were diluted to OD600 0.001 and partitioned into a 96-well polystyrene microplate at 90 μL per well. After treatment with 10 μL of peptide solutions two fold diluted to various concentrations, microplates were incubated at 37° C. overnight and read on a ChroMate® 4300 Microplate Reader at 630 nm (GMI, Ramsey, MN). […] To study the influence of medium conditions on the antimicrobial activity of peptides against S. aureus USA300, up to 200 mM sodium chloride (NaCl), 2 mM of calcium chloride, 5-10% of human serum, mouse plasma, fluid, or supernatants of tissue homogenates were included into the assays.
(§2) The bacterial strains used include the Gram-positive bacteria methicillin-resistant Staphylococcus aureus USA300, Enterococcus faecium V286-17 (VRE), S. aureus M838-17 (MRSA) and Gram-negative bacteria E. coli E423-17, E416-7 (ampC), P. aeruginosa E411-17, PA01, K. pneumoniae E406-17, ATCC13883, and A. baumannii B26-16. Bacteria were cultivated in tryptic soy broth (TSB) from BD Bioscience.
(§3) The antibacterial activity of peptides was evaluated using a standard broth microdilution protocol with minor modifications (Mishra, et al. (2017) Acta Biomater., 49:316-328). In brief, logarithmic phase bacterial cultures (i.e., optical density at 600 nm≈0.5) were diluted to 0.001 OD and aliquoted 90 μL per well into a 96-well polystyrene microplate. Added 10 μL peptides per well with various concentrations, plates were incubated at 37° C., overnight. Post incubation the plates are read at 630 nm using a ChroMate® Microplate Reader (GMI). […] To study the influence of medium conditions on the antimicrobial activity of peptides against S. aureus USA300 at different pHs (6.8, 7.2, and 8.0), 150 mM sodium chloride (NaCl), 5-10% of human serum, mouse plasma, and peritoneal fluid were included into the assays.

P. aeruginosa PAO1 = type: cell-based, Pseudomonas aeruginosa; details: PAO1
Method: as §1, §2, §3

Hemolytic assay = type: cell-based, human; details: human, human red blood cells, 2% (v/v)
Method: (§4) Briefly, human red blood cells (hRBCs) were washed three times with phosphate buffer saline (PBS) and diluted to a 2% solution (v/v). After peptide treatment, incubation at 37° C. for one hour, and centrifugation at 5000 rpm for 10 minutes, aliquots of the supernatant were carefully transferred to a fresh 96-well microplate. The amount of hemoglobin released was measured at 545 nm. The percent lysis was calculated by assuming 100% release when human blood cells were treated with 2% Triton™ X-100, and 0% release when incubated with PBS buffer. The peptide concentration that caused 50% lysis of hRBCs is defined as HL50. The cell selectivity index (CSI) was calculated as the ratio between HL50 and MIC of the corresponding peptide against a select pathogenic species.
(§5) Hemolytic assays of peptides were performed as described (Mishra, et al. (2017) Acta Biomater., 49:316-328). Briefly, human red blood cells (hRBCs) obtained from UNMC Blood Bank. The blood washed 3× with isotonic saline (0.9% NaCl) and diluted to 2% blood cells (v/v). Peptide horine and verine at various concentrations were added into the 2% blood cells and incubated at 37° C. for 1 hour. Post incubation the plates were spun at 2000 rpm for 10 minutes, aliquots of the supernatant were carefully transferred to a fresh 96-well microplate. The amount of cells lysed is proportional to the hemoglobin released and measured at 545 nm using a ChroMate® microplate reader. The percent lysis was calculated by assuming 100% release when human blood cells were treated with 1% Triton™ X-100, and 0% release when incubated with PBS. The peptide concentration that caused 50% lysis of hRBCs is defined as HL50.

E. coli ATCC 25922 = type: cell-based, Escherichia coli; details: ATCC 25922
Method: as §1, §3

[1] = tested on: human red blood cells (hRBCs); assay: Hemolytic assay; type: cell-based
Method: as §4, §5

K. pneumoniae ATCC 13883 = type: cell-based, Klebsiella pneumoniae; details: ATCC 13883
Method: as §1, §2, §3

[2] = tested on: Klebsiella pneumoniae clinical strains; assay: microbe, parasite or virus in culture; details: Klebsiella pneumoniae
Method: as §3

Row | SMILES | MIC S. aureus USA 300 (S. aureus USA300; USA300) [µM] | MIC P. aeruginosa PAO1 (P. aeruginosa PAO1) [µM] | HL50 [1] [µM] | MIC K. pneumoniae (K. pneumoniae ATCC 13883) [µM] | MIC E. coli ATCC 25922 (E. coli ATCC 25922) [µM] | other results
1 | CC(C)C[C@H](NC(=O)[C@H](CC(C)C)NC(=O)[C@H](CCCCN)NC(=O)CNC(=O)[C@H](CC(C)C)NC(=O)[C@H](CC(C)C)NC(=O)[C@H](CO)NC(=O)[C@H](CC(C)C)NC(=O)[C@H](CC(C)C)NC(=O)[C@H](CC(C)C)NC(=O)[C@H](CO)NC(=O)[C@H](CC(C)C)NC(=O)CN)C(N)=O [DFT502, GLSLLLSLLGKLL] (H-GLSLLLSLLGKLL-NH2; N-terminus and C-terminus assumed) |  |  |  |  |  | MIC SA (S. aureus USA300) (S. aureus USA300; USA300): 1.6 µM (≈ 2.14 µg/mL); MIC PA (P. aeruginosa PAO1) (P. aeruginosa PAO1): >25 µM; HC50 at 1 h (Hemolytic assay): 3.1 µM; MIC EC (E. coli ATCC 25922) (E. coli ATCC 25922): >25 µM
2 | CC(C)C[C@H](NC(=O)[C@H](CC(C)C)NC(=O)[C@H](CCCCN)NC(=O)CNC(=O)[C@H](CC(C)C)NC(=O)[C@H](C)NC(=O)[C@H](CCCN)NC(=O)[C@H](CC(C)C)NC(=O)[C@H](C)NC(=O)[C@H](CO)NC(=O)[C@H](CC(C)C)NC(=O)[C@H](CC(C)C)NC(=O)CN)C(N)=O [DFT515, GLLSALOALGKLL] (H-GLLSAL[Orn]ALGKLL-NH2; N-terminus assumed) | 1.56 (≈ 2 µg/mL) | >25 | 36 | 3.1 (≈ 3.97 µg/mL) | 3.1 (≈ 3.97 µg/mL) | 
3 | CC(C)C[C@H](NC(=O)[C@H](CC(C)C)NC(=O)[C@H](CCCN)NC(=O)CNC(=O)[C@H](CC(C)C)NC(=O)[C@H](C)NC(=O)[C@H](CCCN)NC(=O)[C@H](CC(C)C)NC(=O)[C@H](C)NC(=O)[C@H](CO)NC(=O)[C@H](CC(C)C)NC(=O)[C@H](CC(C)C)NC(=O)CN)C(N)=O [DFT516, GLLSALOALGOLL] (H-GLLSAL[Orn]ALG[Orn]LL-NH2; N-terminus assumed) | 1.56 (≈ 1.98 µg/mL) | >25 | 36 | 3.1 (≈ 3.93 µg/mL) | 3.1 to 6.25 | 
4 | CC(C)C[C@H](NC(=O)[C@H](CC(C)C)NC(=O)[C@H](CCCCN)NC(=O)CNC(=O)[C@H](CC(C)C)NC(=O)[C@H](CO)NC(=O)[C@H](CC(C)C)NC(=O)[C@H](CO)NC(=O)[C@H](CC(C)C)NC(=O)[C@H](CC(C)C)NC(=O)CN)C(N)=O [DFT524, GLLSL-SL-GKLL] (H-GLLSLSLGKLL-NH2; N-terminus and C-terminus assumed) | >25 | >25 | >300 |  | >25 | MIC K. pneumonia ATCC 13883 (K. pneumoniae ATCC 13883): >25 µM
5 | CC(C)C[C@H](NC(=O)[C@H](CC(C)C)NC(=O)[C@H](CCCCN)NC(=O)CNC(=O)[C@H](CC(C)C)NC(=O)[C@H](CO)NC(=O)[C@H](CO)NC(=O)[C@H](CC(C)C)NC(=O)[C@H](CC(C)C)NC(=O)CN)C(N)=O [DFT525, GLLS--SL-GKLL] (H-GLLSSLGKLL-NH2; N-terminus and C-terminus assumed) | >25 | >25 | >300 |  | >25 | MIC K. pneumonia ATCC 13883 (K. pneumoniae ATCC 13883): >25 µM
6 | CC(C)C[C@H](NC(=O)[C@H](CC(C)C)NC(=O)[C@H](CCCCN)NC(=O)CNC(=O)[C@H](CC(C)C)NC(=O)[C@H](CO)NC(=O)[C@H](CO)NC(=O)[C@H](CC(C)C)NC(=O)CN)C(N)=O [DFT526, GL-S--SL-GKLL] (H-GLSSLGKLL-NH2; N-terminus and C-terminus assumed) | >25 | >25 | >300 |  | >25 | MIC K. pneumonia ATCC 13883 (K. pneumoniae ATCC 13883): >25 µM
7 | CC(C)C[C@H](NC(=O)[C@H](CC(C)C)NC(=O)[C@H](CCCCN)NC(=O)CNC(=O)[C@H](CC(C)C)NC(=O)[C@H](C)NC(=O)[C@H](CCCCN)NC(=O)[C@H](CC(C)C)NC(=O)[C@H](C)NC(=O)[C@H](CO)NC(=O)[C@H](CC(C)C)NC(=O)[C@H](C)NC(=O)CN)C(N)=O [DFT528, GALSALKALGKLL] (H-GALSALKALGKLL-NH2; N-terminus assumed) | 25 (≈ 31.3 µg/mL) | >25 | >50 | >25 | 25 (≈ 31.3 µg/mL) | MIC against S. aureus (S. aureus USA300; USA300): 12.5 to 25 µM
8 | CC(C)C[C@H](NC(=O)[C@H](C)NC(=O)[C@H](CCCCN)NC(=O)CNC(=O)[C@H](CC(C)C)NC(=O)[C@H](C)NC(=O)[C@H](CCCCN)NC(=O)[C@H](CC(C)C)NC(=O)[C@H](C)NC(=O)[C@H](CO)NC(=O)[C@H](CC(C)C)NC(=O)[C@H](CC(C)C)NC(=O)CN)C(N)=O [DFT529, GLLSALKALGKAL] (H-GLLSALKALGKAL-NH2; N-terminus assumed) | 75 (≈ 94 µg/mL) | >25 | >50 | >25 | 25 (≈ 31.3 µg/mL) | MIC against S. aureus (S. aureus USA300; USA300): 12.5 to 25 µM
9 | CC(C)C[C@H](NC(=O)[C@H](C)NC(=O)[C@H](CCCCN)NC(=O)CNC(=O)[C@H](CC(C)C)NC(=O)[C@H](C)NC(=O)[C@H](CCCCN)NC(=O)[C@H](CC(C)C)NC(=O)[C@H](C)NC(=O)[C@H](CO)NC(=O)[C@H](CC(C)C)NC(=O)[C@H](C)NC(=O)CN)C(N)=O [DFT530, GALSALKALGKAL] (H-GALSALKALGKAL-NH2; N-terminus assumed) | >25 | >25 | >100 | >25 | >25 | Antimicrobial activity (S. aureus USA300; at 25 μM): inactive
10 | CC(C)C[C@H](NC(=O)[C@H](CC(C)C)NC(=O)[C@H](CCCCN)NC(=O)[C@H](CC(C)C)NC(=O)CNC(=O)[C@H](CC(C)C)NC(=O)[C@H](CCCCN)NC(=O)[C@H](CC(C)C)NC(=O)[C@H](CC(C)C)NC(=O)[C@H](CC(C)C)NC(=O)[C@H](CO)NC(=O)[C@H](CC(C)C)NC(=O)CN)C(N)=O [DFT562, GLSLLLKLGLKLL] (H-GLSLLLKLGLKLL-NH2; N-terminus and C-terminus assumed) |  |  |  |  |  | MIC PA (P. aeruginosa PAO1) (P. aeruginosa PAO1): >25 µM; HC50 at 1 h (Hemolytic assay): < 25 µM; MIC EC (E. coli ATCC 25922) (E. coli ATCC 25922): >25 µM
11 | CN(C)c1cc(NC(=O)CNC(C)(C)C)c(O)c2c1C[C@H]1C[C@H]3[C@H](N(C)C)C(O)=C(C(N)=O)C(=O)[C@@]3(O)C(O)=C1C2=O [Tigecycline, reference compound] |  |  |  |  |  | MIC ([2]; strain KP-231-18): 4 µM (≈ 2.34 µg/mL); MIC ([2]; strain KP-232-18): 8 µM (≈ 4.69 µg/mL); MIC ([2]; strain KP-245-18): 4 µM (≈ 2.34 µg/mL); MIC ([2]; strain KP-249-18): 2 µM (≈ 1.17 µg/mL); MIC ([2]; strain KP-253-18): 2 µM (≈ 1.17 µg/mL); MIC ([2]; strain KP-256-18): 4 µM (≈ 2.34 µg/mL); MIC ([2]; strain KP-257-18): 8 µM (≈ 4.69 µg/mL); MIC ([2]; strain KP-262-18): 4 µM (≈ 2.34 µg/mL); MIC ([2]; strain KP-270-18): 4 µM (≈ 2.34 µg/mL); MIC ([2]; strain KP-B42-15): < 2 µM; MIC ([2]; strain KP-B53-15): 2 µM (≈ 1.17 µg/mL); MIC ([2]; strain KP-B73-15): 2 µM (≈ 1.17 µg/mL); MIC ([2]; strain KP-B77-15): < 2 µM; MIC ([2]; strain KP-B1725-18): 2 µM (≈ 1.17 µg/mL)
